Experimental data published in US20230295200A1 (REGENTS OF THE UNIVERSITY OF MICHIGAN, priority 2022, published 2023).

These compounds were tested against T1, STAT5A (Homo sapiens, UniProt P42229) (assay: Fluorescence polarization (FP) binding assay, STAT5A). Settings: FP competition, 5 nM fluorescein-labeled tracer, 200 nM protein, PBS pH7.4.
T1 sequence (P42229 1-794): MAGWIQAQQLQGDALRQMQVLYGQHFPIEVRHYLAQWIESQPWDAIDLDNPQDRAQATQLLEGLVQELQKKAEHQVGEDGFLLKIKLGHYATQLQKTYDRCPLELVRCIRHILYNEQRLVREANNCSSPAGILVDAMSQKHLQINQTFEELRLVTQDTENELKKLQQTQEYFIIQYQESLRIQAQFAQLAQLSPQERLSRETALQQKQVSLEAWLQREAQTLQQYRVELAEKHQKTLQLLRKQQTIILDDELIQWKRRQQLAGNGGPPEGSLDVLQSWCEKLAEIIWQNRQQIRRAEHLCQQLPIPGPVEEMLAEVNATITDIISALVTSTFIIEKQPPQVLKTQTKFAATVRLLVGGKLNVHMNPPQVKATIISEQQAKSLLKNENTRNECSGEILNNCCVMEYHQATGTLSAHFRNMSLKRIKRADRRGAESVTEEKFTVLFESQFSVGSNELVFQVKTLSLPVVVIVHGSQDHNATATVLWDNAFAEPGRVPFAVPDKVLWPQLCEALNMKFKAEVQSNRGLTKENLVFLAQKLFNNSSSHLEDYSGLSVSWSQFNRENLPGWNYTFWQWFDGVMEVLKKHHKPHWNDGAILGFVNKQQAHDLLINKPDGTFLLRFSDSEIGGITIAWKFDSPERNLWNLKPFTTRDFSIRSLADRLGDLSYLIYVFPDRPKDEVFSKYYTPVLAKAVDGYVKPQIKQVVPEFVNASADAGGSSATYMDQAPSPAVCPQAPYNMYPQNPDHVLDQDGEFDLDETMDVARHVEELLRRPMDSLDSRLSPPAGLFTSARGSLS
Method: Evaluation of the activity of the inhibitors may be accomplished by fluorescence polarization (FP) experiments. A representative general protocol is the following:
Fluorescence polarization (FP) experiments are performed in black round-bottom plates using the CLARIOstar microplate reader. To each well, fluorescein-labeled tracer and STAT5 or STAT6 protein are added in assay buffer. […] The inhibition constants are determined as the concentration of the STAT5 or STAT6 at which 50% of the ligand is bound.
Fluorescence polarization (FP) experiments were performed in 96-well, black round-bottom plates (Microfluor 2, Fisher Scientific) using the CLARIOstar microplate reader (BMG Labtech). To each well, 5 nM of fluoresceinlabeled tracer and 200 nM of STAT5 and/or STAT6 protein were added to a final volume of 100 μl in the assay buffer (PBS pH7.4+0.01% BGG+0.01% Tween-20, 2 mM DTT). The plate was mixed on a shaker for 15 m and incubated at room temperature for 1 h to reach equilibrium. […] All experimental data were analyzed using Prism 8.0 software (GraphPad Software), and the inhibition constants were determined by nonlinear curve fitting as the concentration of the STAT5 and/or STAT6 at which 50% of the ligand is bound.

Row | SMILES | Ki [µM]
1 | CC(C)(C)[C@H](NC(=O)c1cc2cc(C(F)(F)P(=O)(O)O)ccc2s1)C(=O)N1CCC[C@H]1C(=O)Nc1nccs1 [Compound 247, ((2-(((S)-3,3-dimethyl-1-oxo-1-((S)-2-(thiazol-2-ylcarbamoyl)pyrrolidin-1-yl)butan-2-yl)carbamoyl)benzo[b]thiophen-5-yl)difluoromethyl)phosphonic acid] | 1 to 10
2 | CC(C)(C)[C@H](NC(=O)c1cc2cc(C(F)(F)P(=O)(O)O)ccc2s1)C(=O)N1CCC[C@H]1C(=O)Nc1ncc(CO)s1 [Compound 248, (difluoro(2-(((S)-1-((S)-2-((5-(hydroxymethyl)thiazol-2-yl)carbamoyl)pyrrolidin-1-yl)-3,3-dimethyl-1-oxobutan-2-yl)carbamoyl)benzo[b]thiophen-5-yl)methyl)phosphonic acid] | > 10
3 | CC(C)(C)[C@H](NC(=O)c1cc2cc(C(F)(F)P(=O)(O)O)ccc2s1)C(=O)N1CCC[C@H]1C(=O)Nc1ncc(C2CCOCC2)s1 [Compound 249, ((2-(((S)-3,3-dimethyl-1-oxo-1-((S)-2-((5-(tetrahydro-2H-pyran-4-yl)thiazol-2-yl)carbamoyl)pyrrolidin-1-yl)butan-2-yl)carbamoyl)benzo[b]thiophen-5-yl)difluoromethyl)phosphonic acid] | 1 to 10
4 | CC(C)(C)[C@H](NC(=O)c1cc2cc(C(F)(F)P(=O)(O)O)ccc2s1)C(=O)N1CCC[C@H]1C(=O)Nc1ncc(-c2cc3ccccc3[nH]2)s1 [Compound 250, ((2-(((S)-1-((S)-2-((5-(1H-indol-2-yl)thiazol-2-yl)carbamoyl)pyrrolidin-1-yl)-3,3-dimethyl-1-oxobutan-2-yl)carbamoyl)benzo[b]thiophen-5-yl)difluoromethyl)phosphonic acid] | > 10

Now from value to compound:

Row | Ki [µM] | SMILES
5 | > 10 | CC(C)c1cnc(NC(=O)[C@@H]2CCCN2C(=O)[C@@H](NC(=O)c2cc3cc(C(F)(F)P(=O)(O)O)ccc3s2)C(C)(C)C)s1 [Compound 251, (difluoro(2-(((S)-1-((S)-2-((5-isopropylthiazol-2-yl)carbamoyl)pyrrolidin-1-yl)-3,3-dimethyl-1-oxobutan-2-yl)carbamoyl)benzo[b]thiophen-5-yl)methyl)phosphonic acid]
6 | > 10 | CC(C)(C)c1cnc(NC(=O)[C@@H]2CCCN2C(=O)[C@@H](NC(=O)c2cc3cc(C(F)(F)P(=O)(O)O)ccc3s2)C(C)(C)C)s1 [Compound 252, ((2-(((S)-1-((S)-2-((5-(tert-butyl)thiazol-2-yl)carbamoyl)pyrrolidin-1-yl)-3,3-dimethyl-1-oxobutan-2-yl)carbamoyl)benzo[b]thiophen-5-yl)difluoromethyl)phosphonic acid]
7 | > 10 | CCCc1cnc(NC(=O)[C@@H]2CCCN2C(=O)[C@@H](NC(=O)c2cc3cc(C(F)(F)P(=O)(O)O)ccc3s2)C(C)(C)C)s1 [Compound 253, ((2-(((S)-3,3-dimethyl-1-oxo-1-((S)-2-((5-propylthiazol-2-yl)carbamoyl)pyrrolidin-1-yl)butan-2-yl)carbamoyl)benzo[b]thiophen-5-yl)difluoromethyl)phosphonic acid]
8 | 1 to 10 | CC(C)(C)[C@H](NC(=O)c1cc2cc(C(F)(F)P(=O)(O)O)ccc2s1)C(=O)N1CCC[C@H]1C(=O)Nc1ncc(C2CCCCC2)s1 [Compound 254, ((2-(((S)-1-((S)-2-((5-cyclohexylthiazol-2-yl)carbamoyl)pyrrolidin-1-yl)-3,3-dimethyl-1-oxobutan-2-yl)carbamoyl)benzo[b]thiophen-5-yl)difluoromethyl)phosphonic acid]
9 | 0.1 to 1 | CC(C)(C)[C@H](NC(=O)c1cc2cc(C(F)(F)P(=O)(O)O)ccc2s1)C(=O)N1CCC[C@H]1C(=O)Nc1ncc(-c2ccccc2)s1 [Compound 255, ((2-(((S)-3,3-dimethyl-1-oxo-1-((S)-2-((5-phenylthiazol-2-yl)carbamoyl)pyrrolidin-1-yl)butan-2-yl)carbamoyl)benzo[b]thiophen-5-yl)difluoromethyl)phosphonic acid]
